# Target: human NaV 1.8 (Homo sapiens, UniProt Q9Y5Y9)
# Experiment: E-VIPR Assay Detecting and Measuring NaV Inhibition Properties
# Assay type: cell-based
# Conditions: HEK cells expressing a truncated form of human NaV 1.8
# Source text: Sodium ion channels are voltage-dependent proteins that can be activated by inducing membrane voltage changes by applying electric fields. The electrical stimulation instrument and methods of use, referred to as E-VIPR, are described in International Publication No. WO 2002/008748 A3 and C.-J. Huang et al. Characterization of voltage-gated sodium channel blockers by electrical stimulation and fluorescence detection of membrane potential, 24 Nature Biotech. 439-46 (2006), both of which are incorporated by reference in their entirety. The instrument comprises a microtiter plate handler, an optical system for exciting the coumarin dye while simultaneously recording the coumarin and oxonol emissions, a waveform generator, a current- or voltage-controlled amplifier, and parallel electrode pairs that are inserted into assay plate wells. Under integrated computer control, this instrument passes user-programmed electrical stimulus protocols to cells within the wells of the microtiter plate.
# 16-20 hours prior to running the assay on E-VIPR, HEK cells expressing a truncated form of human NaV 1.8 with full channel activity were seeded into microtiter 384-well plates, pre-coated with matrigel, at a density of 25,000 cells per well. 2.5-5% KIR2.1 Bacmam virus was added to the final cell suspension before seeding into cell plates. HEK cells were grown in Dulbecco's Modified Eagle's Medium (DMEM) supplemented with 10% FBS (Fetal Bovine Serum, qualified; Sigma #F4135), 1% NEAA (Non-Essential Amino Acids, Gibco #11140), 1% HEPES (Gibco #15630), 1% Pen-Strep (Penicillin-Streptomycin; Gibco #15140) and 5 μg/ml Blasticidin (Gibco #R210-01). Cells were expanded in vented cap cell culture flasks, with 90-95% humidity and 5% CO2.
# Reagents and Stock Solutions:
# • 100 mg/mL Pluronic F-127 (Sigma #P2443), in dry DMSO • Compound Plates: Corning 384-well Polypropylene Round Bottom #3656 • Cell Plates: 384-well tissue culture treated plates (Greiner #781091-2B)
# 2.5-5% KIR 2.1 Bacmam virus (produced in-house), prepared as described in Section 3.3 of J. A. Fornwald et al., Gene Expression in Mammalian Cells Using BacMam, a Modified Baculovirus System, 1350 Methods in Molecular Biology 95-116 (2016), the entire contents of which are incorporated by reference. The concentration used can be dependent on viral titer of each batch.
# 5 mM DiSBAC6(3), a voltage sensitive oxonol acceptor (CAS number 169211-44-3; 5-[3-(1,3-dihexylhexahydro-4,6-dioxo-2-thioxo-5-pyrimidinyl)-2-propen-1-ylidene]-1,3-dihexyldihydro-2-thioxo-4,6(1H,5H)-pyrimidinedione), in dry DMSO. The preparation of DiSBAC6(3) is analogous to that of DiSBAC4(3) as described in Voltage Sensing by Fluorescence Resonance Energy Transfer in Single Cells, Gonzalez, J. E. and Tsien, R. Y. (1995) Biophys. J. 69, 1272-1280.
# 5 mM CC2-DMPE, a commercially available membrane-bound coumarin phospholipid FRET donor (ThermoFisher Scientific catalog number K1017, CAS number 393782-57-5; tetradecanoic acid, 1,1′-[(1R)-1-[8-(6-chloro-7-hydroxy-2-oxo-2H-1-benzopyran-3-yl)-3-hydroxy-3-oxido-8-oxo-2,4-dioxa-7-aza-3-phosphaoct-1-yl]-1,2-ethanediyl] ester) was prepared in dry DMSO. See also, Improved indicators of cell membrane potential that use fluorescence resonance energy transfer, Gonzalez, J. E. and Tsien, R. Y. (1997) Chem. Biol. 4, 269-277.
# Voltage Assay Background Suppression Compound (VABSC-1) is prepared in H2O (89-363 mM, range used to maintain solubility)
# Human Serum (HS, Millipore #S1P1-01KL, or Sigma SLBR5469V and SLBR5470V as a 50%/50% mixture, for 25% assay final concentration)
# • Sodium Chloride 160 mM (9.35 g/L), Potassium Chloride, 4.5 mM (0.335 g/L), Glucose 10 mM (1.8 g/L), Magnesium Chloride (Anhydrous) 1 mM (0.095 g/L), Calcium Chloride 2 mM (0.222 g/L), HEPES 10 mM (2.38 g/L) in water. […]
# [1] = compound number without "*" (not marked as run in the presence of human serum)
# Chain of human NaV 1.8 (Q9Y5Y9 126-1722 limits assumed): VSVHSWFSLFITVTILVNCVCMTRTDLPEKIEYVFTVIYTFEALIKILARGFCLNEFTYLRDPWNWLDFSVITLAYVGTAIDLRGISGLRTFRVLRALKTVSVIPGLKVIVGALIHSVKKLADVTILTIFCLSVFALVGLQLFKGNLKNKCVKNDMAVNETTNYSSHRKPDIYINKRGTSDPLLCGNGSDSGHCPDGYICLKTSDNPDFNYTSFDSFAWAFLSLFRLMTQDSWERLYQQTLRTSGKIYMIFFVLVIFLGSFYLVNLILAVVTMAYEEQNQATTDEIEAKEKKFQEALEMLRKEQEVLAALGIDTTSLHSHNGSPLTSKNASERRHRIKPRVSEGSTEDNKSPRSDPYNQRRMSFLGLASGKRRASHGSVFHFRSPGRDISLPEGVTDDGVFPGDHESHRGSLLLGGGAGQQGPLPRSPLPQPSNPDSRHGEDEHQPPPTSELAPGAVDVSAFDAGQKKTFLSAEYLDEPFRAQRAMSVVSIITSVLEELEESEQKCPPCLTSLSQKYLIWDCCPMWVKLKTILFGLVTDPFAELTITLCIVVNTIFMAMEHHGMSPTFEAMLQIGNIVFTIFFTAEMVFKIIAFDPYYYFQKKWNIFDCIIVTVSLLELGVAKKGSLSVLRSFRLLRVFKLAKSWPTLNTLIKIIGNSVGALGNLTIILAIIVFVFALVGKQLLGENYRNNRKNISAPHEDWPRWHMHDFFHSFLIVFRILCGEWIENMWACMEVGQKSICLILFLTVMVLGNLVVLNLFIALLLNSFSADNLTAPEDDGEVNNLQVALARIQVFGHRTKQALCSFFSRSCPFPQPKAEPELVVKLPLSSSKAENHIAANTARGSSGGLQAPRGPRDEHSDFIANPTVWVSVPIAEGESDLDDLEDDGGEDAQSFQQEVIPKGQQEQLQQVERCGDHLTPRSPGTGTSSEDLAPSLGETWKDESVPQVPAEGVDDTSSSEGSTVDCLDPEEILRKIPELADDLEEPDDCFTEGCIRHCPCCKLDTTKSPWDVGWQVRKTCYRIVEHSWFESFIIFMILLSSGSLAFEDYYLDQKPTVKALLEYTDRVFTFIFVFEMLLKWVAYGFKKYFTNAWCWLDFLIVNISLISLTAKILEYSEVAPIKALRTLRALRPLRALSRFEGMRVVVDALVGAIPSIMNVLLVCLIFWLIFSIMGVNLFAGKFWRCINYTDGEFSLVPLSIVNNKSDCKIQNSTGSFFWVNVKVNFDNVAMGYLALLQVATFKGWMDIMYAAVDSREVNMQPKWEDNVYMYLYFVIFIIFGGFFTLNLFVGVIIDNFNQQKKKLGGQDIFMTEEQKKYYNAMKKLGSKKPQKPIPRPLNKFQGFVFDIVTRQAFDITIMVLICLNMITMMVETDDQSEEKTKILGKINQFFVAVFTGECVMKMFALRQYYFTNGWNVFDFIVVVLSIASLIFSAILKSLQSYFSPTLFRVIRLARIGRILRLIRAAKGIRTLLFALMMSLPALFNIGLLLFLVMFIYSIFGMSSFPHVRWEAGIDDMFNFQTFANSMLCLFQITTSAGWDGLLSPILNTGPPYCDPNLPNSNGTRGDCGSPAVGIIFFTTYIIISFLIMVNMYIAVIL
IC50 [1],"IC50 (compound number with ""*"": assay performed in the presence of human serum)",Structure (SMILES)
≥ 1000 nM,–,"COc1c([C@@H]2[C@H](OC(C)C)[C@H](C)O[C@H]2C(=O)Nc2ccc(C(N)=O)nc2)ccc(F)c1F [Compound 15, 5-((2R,3R,4S,5S)-3-(3,4-difluoro-2-methoxyphenyl)-4-isopropoxy-5-methyltetrahydrofuran-2-carboxamido)picolinamide]"
10 to 100 nM,–,"COc1c([C@H]2[C@H](C(=O)Nc3ccc([C@@H](O)CO)nc3)O[C@@](C)(C(F)(F)F)[C@H]2OC)ccc(F)c1C [Compound 6, (2R,3R,4S,5R)-N-(6-((R)-1,2-dihydroxyethyl)pyridin-3-yl)-3-(4-fluoro-2-methoxy-3-methylphenyl)-4-methoxy-5-methyl-5-(trifluoromethyl)tetrahydrofuran-2-carboxamide]"
–,≥ 1000 nM,"COc1c([C@@H]2[C@H](OC)[C@H](C)O[C@H]2C(=O)Nc2ccnc([C@](C)(O)CO)c2)ccc(F)c1F (single isomer, unassigned) [Compound 12, rel-(2R*,3R*,4S*,5S*)-3-(3,4-difluoro-2-methoxyphenyl)-N-(2-(1,2-dihydroxypropan-2-yl)pyridin-4-yl)-4-methoxy-5-methyltetrahydrofuran-2-carboxamide]"

# Source: US12662470B2, “Hydroxy and (halo)alkoxy substituted tetrahydrofurans as modulators of sodium channels” (VERTEX PHARMACEUTICALS INCORPORATED, priority 2021, dated 2026)
